Test results reported in article PMC10336670 (Saudi Pharmaceutical Journal : SPJ, 2023).

The compounds below were run against urease enzyme (Canavalia ensiformis, UniProt P07374).
Format: biochemical

Chain of urease enzyme (P07374 whole entry, looked up): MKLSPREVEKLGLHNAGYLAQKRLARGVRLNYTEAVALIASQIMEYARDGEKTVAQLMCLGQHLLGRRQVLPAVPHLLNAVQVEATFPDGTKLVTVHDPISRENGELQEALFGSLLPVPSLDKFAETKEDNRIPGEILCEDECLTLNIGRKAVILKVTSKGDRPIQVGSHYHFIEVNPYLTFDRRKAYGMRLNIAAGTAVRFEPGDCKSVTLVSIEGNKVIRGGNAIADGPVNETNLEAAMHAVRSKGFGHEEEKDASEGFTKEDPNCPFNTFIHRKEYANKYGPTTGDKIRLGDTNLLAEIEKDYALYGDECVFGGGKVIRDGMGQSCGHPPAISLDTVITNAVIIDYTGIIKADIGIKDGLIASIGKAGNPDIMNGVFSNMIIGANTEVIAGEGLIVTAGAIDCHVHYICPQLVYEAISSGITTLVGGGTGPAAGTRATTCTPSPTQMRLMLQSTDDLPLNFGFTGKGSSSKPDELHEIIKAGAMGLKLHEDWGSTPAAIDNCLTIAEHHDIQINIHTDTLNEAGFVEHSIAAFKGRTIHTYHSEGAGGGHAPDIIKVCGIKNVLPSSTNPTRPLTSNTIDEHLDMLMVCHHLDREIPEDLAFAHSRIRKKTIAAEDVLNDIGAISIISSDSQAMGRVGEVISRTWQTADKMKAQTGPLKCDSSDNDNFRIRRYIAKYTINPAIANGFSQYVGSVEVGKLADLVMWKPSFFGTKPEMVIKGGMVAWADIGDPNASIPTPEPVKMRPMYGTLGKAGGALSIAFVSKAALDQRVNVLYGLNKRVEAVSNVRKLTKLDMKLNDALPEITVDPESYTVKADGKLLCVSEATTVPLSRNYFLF

| Compound | potency as urease inhibitor compared to the standard drug thiourea |
| --- | --- |
| CN(C)c1ccc(-c2coc(N/N=C\c3cnc4ccc(F)cn34)n2)cc1 [4 l, (Z)-4-(2-(2-((6-fluoroimidazo[1,2-a]pyridin-3-yl)methylene)hydrazineyl)oxazol-4-yl)-N,N-dimethylaniline] | three-fold least potency |
| Cc1ccc(-c2ccc(-c3coc(N/N=C\c4cnc5ccc(F)cn45)n3)cc2)cc1 [4f, (Z)-2-(2-((6-fluoroimidazo[1,2-a]pyridin-3-yl)methylene)hydrazineyl)-4-(4'-methyl-[1,1'-biphenyl]-4-yl)oxazole] | three-fold least potent |
| Cc1ccccc1-c1coc(N/N=C\c2cnc3ccc(F)cn23)n1 [4p, (Z)-2-(2-((6-fluoroimidazo[1,2-a]pyridin-3-yl)methylene)hydrazineyl)-4-(o-tolyl)oxazole] | three-fold least potency |
| Fc1ccc2ncc(/C=N\Nc3nc(-c4ccc(-c5ccccc5)cc4)co3)n2c1 [4c, (Z)-4-([1,1'-biphenyl]-4-yl)-2-(2-((6-fluoroimidazo[1,2-a]pyridin-3-yl)methylene)hydrazineyl)oxazole] | three-fold least potent |
